Assays:
Type in all cases: cell-based
[1] = target: T1, PPARγ (Homo sapiens, UniProt P37231); assay: Gal4-hybrid reporter gene assay PPARγ; settings: n ≥ 3; for fold act. PPARγ: mean, Fig. 8; for EC50: HEK293T, Gal4-hybrid reporter, Inactive = tested 1–300 μM; for EC50 / max. fold activation PPARγ: mean ± S.E.M.; for max. fold activation PPARγ: maximum reporter activation vs DMSO (0.1%) treated cells
T1 construct: expressed in transfected cells; host or cells: HEK293T
T1 sequence (P37231 238-503 limits assumed): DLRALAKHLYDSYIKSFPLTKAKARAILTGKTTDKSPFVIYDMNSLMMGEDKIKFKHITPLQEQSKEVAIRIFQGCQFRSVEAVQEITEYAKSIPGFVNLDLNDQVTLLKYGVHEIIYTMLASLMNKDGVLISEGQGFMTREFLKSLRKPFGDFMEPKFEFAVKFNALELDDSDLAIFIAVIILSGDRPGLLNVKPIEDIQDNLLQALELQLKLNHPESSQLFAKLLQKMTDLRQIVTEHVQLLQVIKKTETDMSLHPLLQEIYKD
Protocol: (§1) NR modulation was determined as described previously[45] in Gal4 hybrid reporter gene assays in HEK293T cells (German Collection of Microorganisms and Cell Culture GmbH, DSMZ) using pFR-Luc (Stratagene, La Jolla, CA, USA; reporter), pRL-SV40 (Promega, Madison, WI, USA; internal control) and the hybrid receptor clones pFA-CMV-hTHRα-LBD,[46] pFA-CMV-hPPARγ-LBD,[47] pFA-CMV-hFXR-LBD,[48] and pFA-CMV-hRXRα-LBD,[49] coding for the hinge region and ligand binding domain of the canonical isoform of the respective NR. Cells were cultured in Dulbecco's modified Eagle's medium (DMEM), high glucose supplemented with 10% fetal calf serum (FCS), sodium pyruvate (1 mM), penicillin (100 U mL^−1), and streptomycin (100 μg mL^−1) at 37 °C and 5% CO2 and seeded in 96-well plates (3 × 10^4 cells per well). After 24 h, medium was changed to Opti-MEM without supplements and cells were transiently transfected using Lipofectamine LTX reagent (Invitrogen, Carlsbad, CA, USA) according to the manufacturer's protocol. Five hours after transfection, cells were incubated with the test compounds in Opti-MEM supplemented with penicillin (100 U mL^−1), streptomycin (100 μg mL^−1) and 0.1% DMSO for 16 h before luciferase activity was measured using the Dual-Glo Luciferase Assay System (Promega) according to the manufacturer's protocol on a Tecan Spark luminometer (Tecan Deutschland GmbH, Crailsheim, Germany). Firefly luminescence was divided by Renilla luminescence and multiplied by 1000 resulting in relative light units (RLU) to normalize for transfection efficiency and cell growth. Fold activation was obtained by dividing the mean RLU of test compound by the mean RLU of the untreated control. All samples were tested in at least three biologically independent experiments in duplicates. For dose–response curve fitting and calculation of EC50 values, the equation “[agonist] vs. response − variable slope (four parameters)” was used in GraphPad Prism (version 7.00, GraphPad Software, La Jolla, CA, USA). For selectivity profiling, the hybrid reporter gene assay was performed with Gal4 fusion receptor plasmids for RARα, PPARα, PPARδ, VDR, CAR and LXRα. The following reference agonists were used: triiodothyronine (1 μM, THR), all-trans retinoic acid (1 μM, RAR), GW7647 (1 μM, PPARα), pioglitazone (1 μM, PPARγ), L165041 (1 μM, PPARδ), calcitriol (1 μM, VDR), CITCO (1 μM, CAR), T0901317 (1 μM, LXR), GW4064 (1 μM, FXR), bexarotene (1 μM, RXR).

[2] = target: T2, RARα (Homo sapiens, UniProt P10276); assay: Gal4-hybrid reporter gene assay RARα (selectivity); settings: mean, n ≥ 3, Fig. 8
T2 construct: expressed in transfected cells; host or cells: HEK293T
T2 sequence (P10276 154-462 limits assumed): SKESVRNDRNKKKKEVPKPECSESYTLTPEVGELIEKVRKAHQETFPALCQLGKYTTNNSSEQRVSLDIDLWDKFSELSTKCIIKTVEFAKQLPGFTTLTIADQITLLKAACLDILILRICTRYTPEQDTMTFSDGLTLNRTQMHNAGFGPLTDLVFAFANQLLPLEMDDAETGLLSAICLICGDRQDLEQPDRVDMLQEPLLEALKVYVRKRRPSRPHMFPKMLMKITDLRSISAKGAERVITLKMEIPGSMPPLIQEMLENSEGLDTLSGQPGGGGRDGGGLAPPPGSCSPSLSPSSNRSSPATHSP
Protocol: as §1

[3] = target: T3, FXR (Homo sapiens, UniProt Q96RI1); assay: Gal4-hybrid reporter gene assay FXR; settings: n ≥ 3; for fold act. FXR: mean, Fig. 8; for EC50 / EC50 FXR: HEK293T, Gal4-hybrid reporter, Inactive = tested 1–300 μM; for EC50 / max. fold activation FXR / EC50 FXR: mean ± S.E.M.; for max. fold activation FXR: maximum reporter activation vs DMSO (0.1%) treated cells
T3 construct: expressed in transfected cells; host or cells: HEK293T
T3 sequence (Q96RI1 262-486 limits assumed): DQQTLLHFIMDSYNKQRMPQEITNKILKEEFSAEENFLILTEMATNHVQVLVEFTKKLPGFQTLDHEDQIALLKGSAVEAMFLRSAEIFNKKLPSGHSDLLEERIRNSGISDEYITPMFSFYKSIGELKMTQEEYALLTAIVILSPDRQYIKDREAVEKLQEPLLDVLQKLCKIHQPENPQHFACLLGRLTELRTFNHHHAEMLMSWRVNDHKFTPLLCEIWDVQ
Protocol: as §1

[4] = target: T4, VDR (Homo sapiens, UniProt P11473); assay: Gal4-hybrid reporter gene assay VDR (selectivity); settings: mean, n ≥ 3, Fig. 8
T4 construct: expressed in transfected cells; host or cells: HEK293T
T4 sequence (P11473 97-427 limits assumed): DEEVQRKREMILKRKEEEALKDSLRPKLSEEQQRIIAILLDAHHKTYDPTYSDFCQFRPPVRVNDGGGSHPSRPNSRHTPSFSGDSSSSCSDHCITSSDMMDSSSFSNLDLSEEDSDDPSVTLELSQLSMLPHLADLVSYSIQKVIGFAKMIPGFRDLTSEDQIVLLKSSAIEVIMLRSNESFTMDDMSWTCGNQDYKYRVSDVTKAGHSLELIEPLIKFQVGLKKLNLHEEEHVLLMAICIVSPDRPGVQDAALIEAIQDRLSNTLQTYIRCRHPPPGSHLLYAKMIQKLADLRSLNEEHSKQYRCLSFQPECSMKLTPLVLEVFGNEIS
Protocol: as §1

[5] = target: T5, RXRα (Homo sapiens, UniProt P19793); assay: Gal4-hybrid reporter gene assay RXRα; settings: n ≥ 3; for fold act. RXRα: mean, Fig. 8; for EC50 / EC50 RXRα: HEK293T, Gal4-hybrid reporter, Inactive = tested 1–300 μM; for EC50 / max. fold activation RXRα / EC50 RXRα: mean ± S.E.M.; for max. fold activation RXRα: maximum reporter activation vs DMSO (0.1%) treated cells
T5 construct: expressed in transfected cells; host or cells: HEK293T
T5 sequence (P19793 227-458 limits assumed): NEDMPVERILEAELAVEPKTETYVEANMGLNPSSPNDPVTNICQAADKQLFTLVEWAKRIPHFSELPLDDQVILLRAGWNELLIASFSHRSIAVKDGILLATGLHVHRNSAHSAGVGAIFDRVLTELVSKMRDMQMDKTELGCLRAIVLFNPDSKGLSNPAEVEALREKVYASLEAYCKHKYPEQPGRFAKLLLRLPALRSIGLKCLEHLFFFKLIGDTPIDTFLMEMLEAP
Protocol: as §1

Row | EC50 [1] | max. fold activation PPARγ [1] | EC50 [3] | max. fold activation FXR [3] | EC50 [5] | max. fold activation RXRα [5] | fold act. PPARγ ([1]; 30 μM) | fold act. RARα ([2]; 30 μM) | fold act. FXR ([3]; 30 μM) | EC50 FXR [3] | fold act. VDR ([4]; 30 μM) | fold act. RXRα ([5]; 30 μM) | EC50 RXRα [5] | Structure (SMILES) | further results
1 | 3 ± 1 µM | (6.4 ± 0.6-fold) | 1.3 ± 0.3 µM | (6.4 ± 0.3-fold) | 0.9 ± 0.2 µM | (4.3 ± 0.5-fold) | – | – | – | – | – | – | – | CCOc1ccc(-c2cc(C(=O)O)co2)cc1 [3.1, 5-(4-Ethoxyphenyl)furan-3-carboxylic acid] | fold act. PPARγ ([1]; 10 μM): 6 fold; fold act. RARα ([2]; 10 μM): 6 fold; fold act. FXR ([3]; 10 μM): 6 fold; fold act. VDR ([4]; 10 μM): 3 fold; fold act. RXRα ([5]; 10 μM): 4 fold
2 | 20 ± 5 µM | (13 ± 2-fold) | – | – | – | – | 9 fold | 1 fold | 1 fold | Inactive | 1 fold | 1 fold | Inactive | O=C(O)/C=C/C(=O)c1ccc(Cl)cc1Cl [4.6, (E)-4-Oxo-4-(2,4-dichlorophenyl)but-2-enoic acid] | –
3 | 18 ± 4 µM | (33.4 ± 2.7-fold) | – | – | – | – | 32 fold | 3 fold | 1 fold | Inactive | 2 fold | 1 fold | Inactive | O=C(O)/C=C/C(=O)c1ccc(-c2ccccc2)cc1 [4.7, (E)-4-([1,1′-Biphenyl]-4-yl)-4-oxobut-2-enoic acid] | –
4 | 27 ± 1 µM | (16.7 ± 0.5-fold) | 26 ± 4 µM | (7 ± 1-fold) | 26 ± 3 µM | (4.5 ± 0.5-fold) | – | – | – | – | – | – | – | O=C(O)/C=C/C(=O)c1ccc2ccccc2c1 [4.8, (E)-4-Oxo-4-(naphthalen-2-yl)but-2-enoic acid] | fold act. PPARγ ([1]; 40 μM): 18 fold; fold act. RARα ([2]; 40 μM): 3 fold; fold act. FXR ([3]; 40 μM): 6 fold; fold act. VDR ([4]; 40 μM): 3 fold; fold act. RXRα ([5]; 40 μM): 5 fold

From PMC12352620, “Fragment-based discovery of dual ligand pharmacophores for lipid-sensing transcription factors for designed polypharmacology” (RSC Medicinal Chemistry, 2025)
